Structures can show the parent of a compound that is named as a salt. The source made the active and inactive calls.
Legend:
SN12K1 = assay: cells; assay type: functional; conditions: Homo sapiens
P388/ADR = assay: cells; assay type: functional; conditions: Mus musculus
P388 = assay: cells; assay type: functional; conditions: Mus musculus
Streptokinase A = biological target: T1, Streptokinase A (Streptococcus pyogenes serotype M1, UniProt P10520); assay: S. pyogenes streptokinase expression inhibitors, potency, dose response, plasminogen activation absorbance, OD405 (AID 1914); assay type: functional, Streptococcus pyogenes M1 GAS;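 note: secreted streptokinase activity via plasminogen activation per viability signal from cell pellet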
T1 sequence (P10520 whole entry): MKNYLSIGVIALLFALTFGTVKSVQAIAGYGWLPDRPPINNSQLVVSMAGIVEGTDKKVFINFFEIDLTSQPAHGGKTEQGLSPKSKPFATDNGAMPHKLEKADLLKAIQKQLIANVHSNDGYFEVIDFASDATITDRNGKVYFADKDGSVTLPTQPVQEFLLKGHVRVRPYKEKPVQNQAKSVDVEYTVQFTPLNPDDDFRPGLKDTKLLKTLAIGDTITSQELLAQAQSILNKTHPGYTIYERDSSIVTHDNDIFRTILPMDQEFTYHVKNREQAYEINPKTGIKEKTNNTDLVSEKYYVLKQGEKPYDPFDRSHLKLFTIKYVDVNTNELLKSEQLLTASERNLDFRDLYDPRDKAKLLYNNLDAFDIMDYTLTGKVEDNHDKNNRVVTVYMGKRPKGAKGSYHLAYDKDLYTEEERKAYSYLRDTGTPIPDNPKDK

[1] = biological target: Heat shock protein HSP 90-alpha (Homo sapiens, UniProt P07900); assay type: functional, organism-based
[2] = tested on: Streptococcus sp. 'group A'; assay: growth inhibition of control SK(-) GAS strain, dose response, counter-screen for streptokinase expression inhibitor project, luminescence, kanamycin, BacTiterGlo, confirmation (AID 1900); assay type: functional, organism-based; conditions: read-out: EC50
Streptococcus = assay: Group A Streptococcus viability loss, dose response, counter-screen for streptokinase expression inhibitor project, luminescence, BacTiterGlo (AID 1915); assay type: functional, organism-based;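 note: potency for reduction of bacterial viability or growth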
H9c2 = assay: cells; assay type: functional, cell-based; conditions: Rattus norvegicus, H9c2, Myocardium;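 note: confirmatory concentration-response retest of ultra-high-throughput screening hits for modulation of myocardial damage; cell death induced by hydrogen peroxide oxidative stress; compound pretreatment for 60 min then peroxide exposure for 2 h; potency is for protecting the cells against peroxide damage rather than for killing them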
Cytochrome P450 2C19 = Cytochrome P450 2C19 (Homo sapiens, UniProt P33261); assay: Cytochrome panel assay with activity outcomes. Panel member name: p450-cyp2c19 Compounds with AC50 equal or less than 10 uM are considered active; assay type: functional; conditions: read-out: AC50
Cytochrome P450 2C19, sequence (P33261 whole entry): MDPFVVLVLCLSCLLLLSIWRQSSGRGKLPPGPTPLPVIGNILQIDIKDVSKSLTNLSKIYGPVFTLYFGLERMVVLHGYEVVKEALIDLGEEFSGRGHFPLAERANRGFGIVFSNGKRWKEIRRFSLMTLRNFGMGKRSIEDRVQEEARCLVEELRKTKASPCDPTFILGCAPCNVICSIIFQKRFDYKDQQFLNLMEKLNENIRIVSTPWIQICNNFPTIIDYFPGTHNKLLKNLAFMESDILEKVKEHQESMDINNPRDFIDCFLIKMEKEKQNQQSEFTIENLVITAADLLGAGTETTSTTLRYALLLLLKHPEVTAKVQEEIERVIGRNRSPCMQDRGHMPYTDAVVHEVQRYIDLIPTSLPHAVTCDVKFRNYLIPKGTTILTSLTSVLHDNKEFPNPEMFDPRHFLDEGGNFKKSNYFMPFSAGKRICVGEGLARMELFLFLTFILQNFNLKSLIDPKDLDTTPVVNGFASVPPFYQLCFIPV

Cytochrome P450 2C9 = Cytochrome P450 2C9 (Homo sapiens, UniProt P11712)
Cytochrome P450 2C9, sequence (P11712 whole entry): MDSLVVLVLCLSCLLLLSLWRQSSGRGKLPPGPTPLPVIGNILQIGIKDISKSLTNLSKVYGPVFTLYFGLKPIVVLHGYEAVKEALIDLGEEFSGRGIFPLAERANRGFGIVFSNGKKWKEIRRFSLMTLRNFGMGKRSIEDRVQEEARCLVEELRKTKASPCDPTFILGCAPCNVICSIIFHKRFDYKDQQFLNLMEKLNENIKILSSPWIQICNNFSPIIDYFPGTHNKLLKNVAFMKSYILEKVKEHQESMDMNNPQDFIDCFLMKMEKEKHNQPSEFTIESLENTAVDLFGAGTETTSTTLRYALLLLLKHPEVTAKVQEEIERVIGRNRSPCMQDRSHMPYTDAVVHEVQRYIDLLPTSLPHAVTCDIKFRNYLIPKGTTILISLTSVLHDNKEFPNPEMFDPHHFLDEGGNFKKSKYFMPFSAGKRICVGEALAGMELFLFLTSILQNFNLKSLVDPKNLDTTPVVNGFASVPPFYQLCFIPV

Cytochrome P450 2D6 = Cytochrome P450 2D6 (Homo sapiens, UniProt P10635);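 note: CYP2D6 member of a cytochrome P450 panel assay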
Cytochrome P450 2D6, sequence (P10635 whole entry): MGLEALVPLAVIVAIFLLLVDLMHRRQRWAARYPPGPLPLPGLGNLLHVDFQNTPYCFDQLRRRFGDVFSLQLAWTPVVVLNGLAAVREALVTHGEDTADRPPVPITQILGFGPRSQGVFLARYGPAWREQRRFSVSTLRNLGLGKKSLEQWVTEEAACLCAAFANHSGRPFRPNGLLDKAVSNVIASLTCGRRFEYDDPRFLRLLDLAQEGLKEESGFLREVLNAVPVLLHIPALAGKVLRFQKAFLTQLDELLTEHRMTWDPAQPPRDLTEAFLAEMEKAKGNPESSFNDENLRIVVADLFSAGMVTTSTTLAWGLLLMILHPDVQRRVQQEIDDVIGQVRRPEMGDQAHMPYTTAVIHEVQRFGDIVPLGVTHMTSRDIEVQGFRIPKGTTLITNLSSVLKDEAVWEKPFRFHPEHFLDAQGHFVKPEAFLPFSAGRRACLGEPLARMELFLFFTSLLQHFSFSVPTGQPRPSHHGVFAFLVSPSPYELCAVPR

Cytochrome P450 3A4 = Cytochrome P450 3A4 (Homo sapiens, UniProt P08684);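 note: CYP3A4 tested as one member of a cytochrome P450 panel screen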
Cytochrome P450 3A4, sequence (P08684 whole entry): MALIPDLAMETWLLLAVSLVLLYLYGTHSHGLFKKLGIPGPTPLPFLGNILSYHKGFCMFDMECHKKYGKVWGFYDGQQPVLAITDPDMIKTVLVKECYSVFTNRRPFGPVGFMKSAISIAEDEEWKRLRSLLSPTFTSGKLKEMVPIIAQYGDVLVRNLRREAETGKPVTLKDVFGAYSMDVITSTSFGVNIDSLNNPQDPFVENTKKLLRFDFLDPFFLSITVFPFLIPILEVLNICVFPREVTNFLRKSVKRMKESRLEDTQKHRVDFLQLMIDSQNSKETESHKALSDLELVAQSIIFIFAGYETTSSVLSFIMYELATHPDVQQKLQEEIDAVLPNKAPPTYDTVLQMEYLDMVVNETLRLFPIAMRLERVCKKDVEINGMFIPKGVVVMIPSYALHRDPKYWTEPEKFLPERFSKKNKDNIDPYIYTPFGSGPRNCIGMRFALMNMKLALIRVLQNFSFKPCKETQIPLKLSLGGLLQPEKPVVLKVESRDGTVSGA

cells [3] = assay type: functional, cell-based
cells [4] = assay type: functional, cell-based; remark: listed apart in the source
[5] = Luminescence Cell-Based Dose Response HTS to Identify Activators of Luciferase Translation or Activity in H4 […] Cells. [Related pubchem assays: 1829 (Project Summary), 1814 (Primary HTS)]; assay type: functional
H4 = assay: Luminescence Cell-Based Dose Response HTS to Identify Activators of 5'UTR Stem-Loop Driven Prion Protein mRNA Translation in H4 Neuroglioblastoma Cells. [Related pubchem assays: 1829 (Project Summary), 1814 (Primary HTS)]; assay type: functional; conditions: Homo sapiens
[6] = Luminescence Cell-Based Dose Confirmation HTS to Identify Activators of 5'UTR Stem-Loop Driven Alpha-Synuclein mRNA Translation in H4 Neuroglioblastoma Cells. [Related pubchem assays: 1829 (Project Summary), 1814 (Primary HTS)]; assay type: functional

Structure (SMILES)	GI50 (SN12K1)	GI50 (P388/ADR)	GI50 (P388)	AC50 (Cytochrome P450 2D6)	further results
COc1cc(/C=C/C(=O)Oc2ccccc2)ccc1C(=O)O/C=C/c1ccccc1	> 100 µM (inactive)	0.83 µM (active)	3.78 µM (inactive)		
CC(C)NC(=O)OCc1c(COC(=O)NC(C)C)c(-c2ccc(Cl)c(Cl)c2)n2c1CCC2	> 100 µM (inactive)	> 100 µM (inactive)	> 100 µM (inactive)		
Cc1ccc2nc(-c3ccc(NS(=O)(=O)c4ccc(F)cc4)cc3)sc2c1					EC50 (Streptokinase A): > 150 µM (not active); AC50 [1]: 4.57 µM (active); EC50 [2]: 3.12 µM (active); EC50 (Streptococcus): 5.33 µM (active)
O=C1c2ccccc2NC(c2c[nH]nc2-c2ccccc2)N1O (centres undefined)					IC50 (H9c2): 20.8 µM (active)
Cc1cc(NC(=S)Nc2ccccc2)c(NC(=S)Nc2ccccc2)cc1C	18.5 µM (inactive)	3.3 µM (inactive)	1.41 µM (inactive)		
Cc1nc(O)nc(O)c1/C=C/C(=O)O	> 1000 µM (inactive)	> 1000 µM (inactive)	631 µM (inactive)		
COc1ccc(/C=C2\N=C(c3c(-c4ccccc4)noc3C)OC2=O)cc1OC				20 µM (inconclusive)	AC50 (Cytochrome P450 2C19): 28.2 µM (inconclusive); AC50 (Cytochrome P450 2C9): 1 µM (inconclusive)
CC1CCCN(Cc2nc3c(c(=O)n(C)c(=O)n3C)n2CCCc2ccccc2)C1 (centres undefined)					IC50 (H9c2): 12.4 µM (active)
CC[C@]1(O)C[C@H]2CN(CCc3c([nH]c4ccccc34)[C@@](C(=O)OC)(c3cc4c(cc3OC)N(C=O)[C@H]3[C@@](O)(C(=O)OC)[C@H](OC(C)=O)[C@]5(CC)C=CCN6CC[C@]43[C@@H]65)C2)C1 [VINCRISTINE SULFATE]	0.1 µM (active)	0.171 µM (active)	0.1 µM (active)		
Cc1cccc(C(=O)N/N=C2\CS(=O)(=O)N(C)c3ccsc32)c1					IC50 (H9c2): > 79 µM (inactive)
COc1ccc(N(C(=O)c2cccnc2)S(=O)(=O)c2cccs2)cc1					IC50 (H9c2): > 79 µM (inactive)
CCCN1C(=O)C(NC(C)=O)c2cc(OC)ccc21 (centres undefined)				0.00562 µM (inconclusive)	AC50 (Cytochrome P450 2C19): 22.4 µM (inconclusive); AC50 (Cytochrome P450 3A4): 22.4 µM (inconclusive)
COc1ccccc1CCn1c(=O)c(-c2ccc(F)c(F)c2)nc2cncnc21				31.6 µM (inconclusive)	
Oc1ccc(Cl)cc1CNCC1CCCO1 (centres undefined)					EC50 (cells [3]): > 350 µM (not active); EC50 (cells [4]): > 350 µM (not active)
c1ccc(-c2ccc(N3CC[C@@]4(CCCNC4)C3)cc2)cc1				39.8 µM (inconclusive)	AC50 (Cytochrome P450 2C19): 20 µM (inconclusive)
COc1ccc(-c2nn(-c3ccccc3)cc2C(=O)N2CCN(S(=O)(=O)c3cccc(F)c3)CC2)cc1					AC50 [1]: 2.04 µM (active)
CC(C)n1nnnc1SCC(=O)c1ccc2c(c1)OCCO2				14.1 µM (inconclusive)	EC50 [5]: 0.624 µM (active); AC50 (Cytochrome P450 2C9): 17.8 µM (inconclusive); EC50 (H4): > 120 µM (not active); EC50 [6]: 0.276 µM (active)
COC(=O)[C@@]1(Cc2ccccc2)[C@H]2c3cc(C(=O)N(C)C)n(Cc4cc(F)c(F)c(F)c4)c3C[C@H]2CN1C(=O)c1ccccc1				25.1 µM (inconclusive)	
O=C(CCN1CCOCC1)/C(=C/c1ccccc1)c1ccccc1	3.03 µM (inactive)	1.11 µM (active)	2.29 µM (inactive)		
